This passage reports IC50, Activity and inhibition results from ChEMBL document CHEMBL5260810, “Inhibition of bromodomain-containing protein 9 for the prevention of epigenetically-defined drug resistance” (Bioorg Med Chem Lett, 2017).

pIC50: −log10 of the molar value. Activity calls are given as the source filed them. The rule behind the calls is not given here.

The nature of assay [1]: Cytotoxicity against human MOLP8 cells measured after 3 days. It counts as functional, cell-based. The settings on record: MOLP-8, 72 h.
The nature of assay [2]: Cytotoxicity against human CoCM-1 cells measured after 3 days. It counts as functional, cell-based. The settings on record: CoCM-1, 72 h.
Assay [3] is described as follows: Cytotoxicity against human OVISE cells measured after 3 days. It counts as functional, cell-based. The settings on record: 72 h.
A further assay concerns PC-9. The experiment in a line: Cytotoxicity against human PC-9 cells assessed as growth inhibition at 2 uM supplemented with fresh medium containing compound every 3 days for 9 days by Beckman Coulter counting method. The assay is classed as functional, cell-based. The settings on record: time 9.0 day.
Assay [4] can be described thus: Cytotoxicity against human COV362 cells measured after 3 days. It counts as functional, cell-based. The settings on record: COV362, 72 h.
Another assay relates to EFM-19. The experiment in a line: Cytotoxicity against human EFM-19 cells measured after 3 days. The assay is classed as functional, cell-based. The settings on record: EFM-19, 72 h.
The test system of another assay is SNU-423. The experiment in a line: Cytotoxicity against human SNU-423 cells measured after 3 days. The settings on record: SNU-423, 72 h. The assay is classed as functional, cell-based.
The next assay relates to OVCAR-4. The experiment in a line: Cytotoxicity against human OVCAR-4 cells measured after 3 days. The settings on record: OVCAR-4, 72 h. It counts as functional, cell-based.
The nature of assay [5]: Cytotoxicity against human WSU-FSCCL cells measured after 3 days. The assay is classed as functional, cell-based. The settings on record: 72 h.
Assay [6] can be described thus: Cytotoxicity against human RMUG-S cells measured after 3 days. The assay is classed as functional, cell-based. The settings on record: 72 h.
Assay [7] is described as follows: Cytotoxicity against human NCE-G 111 cells measured after 3 days. The assay is classed as functional, cell-based. The settings on record: NCE-G 111, 72 h.
The test system of a further assay is Daudi. The experiment in a line: Cytotoxicity against human Daudi cells measured after 3 days. The assay is classed as functional, cell-based. The settings on record: 72 h.
A short description of assay [8]: Cytotoxicity against human EFM-192C cells measured after 3 days. The assay is classed as functional, cell-based. The settings on record: 72 h.
Assay [9] can be described thus: Cytotoxicity against human NTERA-2 cells after 8 days. The assay is classed as functional, cell-based. The settings on record: NTERA2, 192 h.
For a further assay, the system named is CAL-85-1. The experiment in a line: Cytotoxicity against human CAL-85-1 cells measured after 3 days. The settings on record: CAL-85-1, 72 h. It counts as functional, cell-based.
The test system of another assay is Raji. The experiment in a line: Cytotoxicity against human Raji cells measured after 3 days. It counts as functional, cell-based. The settings on record: 72 h.
The next assay concerns HLE. The experiment in a line: Cytotoxicity against human HLE cells measured after 3 days. The assay is classed as functional, cell-based. The settings on record: 72 h.
The subject of the next assay is TERT-RPE1. The experiment in a line: Cytotoxicity against hTERT-RPE1 cells measured after 8 days. The settings on record: Homo sapiens, RPE-1, 192 h. It counts as functional, cell-based.
In the next assay the test system is 769-P. The experiment in a line: Cytotoxicity against human 769-P cells measured after 3 days. It counts as functional, cell-based. The settings on record: 72 h.
Another assay has as its system DOHH-2. The experiment in a line: Cytotoxicity against human DOHH-2 cells measured after 3 days. The assay is classed as functional, cell-based. The settings on record: DOHH-2, 72 h.
The nature of assay [10]: Cytotoxicity against human OV7 cells measured after 3 days. It counts as functional, cell-based. The settings on record: OV7, 72 h.
Assay [11] is described as follows: Cytotoxicity against human NCE-G 122 cells measured after 3 days. It counts as functional, cell-based. The settings on record: NCE-G 122, 72 h.
Assay [12] is described as follows: Cytotoxicity against human COLO-704 cells measured after 3 days. The settings on record: COLO 704, 72 h. The assay is classed as functional, cell-based.
Assay [13] addresses T1, Bromodomain-containing protein 9 (Homo sapiens) (UniProt Q9H8M2).
T1 sequence (whole entry): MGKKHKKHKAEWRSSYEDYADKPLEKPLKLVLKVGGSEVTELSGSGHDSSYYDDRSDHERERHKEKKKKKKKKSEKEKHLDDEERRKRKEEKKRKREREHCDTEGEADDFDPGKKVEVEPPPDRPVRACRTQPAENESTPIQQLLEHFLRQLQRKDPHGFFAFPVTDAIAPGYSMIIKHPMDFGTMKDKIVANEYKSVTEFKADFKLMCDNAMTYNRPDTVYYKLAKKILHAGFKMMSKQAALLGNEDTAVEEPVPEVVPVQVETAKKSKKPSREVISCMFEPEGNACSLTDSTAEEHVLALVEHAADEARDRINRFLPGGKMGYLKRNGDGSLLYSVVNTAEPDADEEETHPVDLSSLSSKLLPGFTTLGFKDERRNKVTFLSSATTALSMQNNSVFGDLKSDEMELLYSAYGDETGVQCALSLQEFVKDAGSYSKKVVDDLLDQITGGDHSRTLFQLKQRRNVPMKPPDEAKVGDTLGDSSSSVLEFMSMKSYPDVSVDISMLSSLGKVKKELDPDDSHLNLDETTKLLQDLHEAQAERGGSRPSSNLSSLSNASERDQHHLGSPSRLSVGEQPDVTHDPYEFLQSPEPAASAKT
The experiment in a line: Binding affinity to BRD9 in human PC-9 cell lysate assessed as increase in thermal stabilization at 2 uM at 44 to 50 degreeC measured after 30 mins by CETSA. The assay is classed as subcellular.

A short description of assay [14]: Cytotoxicity against human HCC1623 cells measured after 3 days. It counts as functional, cell-based. The settings on record: HCC1623, 72 h.
For the next assay, the system named is NCI-H1944. The experiment in a line: Cytotoxicity against human NCI-H1944 cells measured after 3 days. The assay is classed as functional, cell-based. The settings on record: NCI-H1944, 72 h.
In the next assay the test system is SK-MES-1. The experiment in a line: Cytotoxicity against human SK-MES-1 cells measured after 3 days. It counts as functional, cell-based. The settings on record: SK-MES-1, 72 h.
Another assay deals with KARPAS-422. The experiment in a line: Cytotoxicity against human KARPAS-422 cells measured after 3 days. It counts as functional, cell-based. The settings on record: KARPAS-422, 72 h.
Another assay has as its system RL. The experiment in a line: Cytotoxicity against human RL cells measured after 3 days. It counts as functional, cell-based. The settings on record: 72 h.
In another assay the test system is NALM-6. The experiment in a line: Cytotoxicity against human NALM-6 cells measured after 3 days. It counts as functional, cell-based. The settings on record: NALM-6, 72 h.
In another assay the test system is MCF7. The experiment in a line: Cytotoxicity against human MCF-7-SER cells measured after 8 days. The assay is classed as functional, cell-based. The settings on record: MCF7, 192 h.
In the next assay the test system is SNU-398. The experiment in a line: Cytotoxicity against human SNU-398 cells measured after 3 days. The assay is classed as functional, cell-based. The settings on record: SNU-398, 72 h.
In another assay the test system is SU-DHL-1. The experiment in a line: Cytotoxicity against human SU-DHL-1 cells measured after 3 days. The assay is classed as functional, cell-based. The settings on record: SU-DHL-1, 72 h.
The nature of assay [15]: Cytotoxicity against human LS174T-HM7 cells measured after 3 days. The assay is classed as functional, cell-based. The settings on record: LS174T-HM7, 72 h.
For a further assay, the system named is PC-3. The experiment in a line: Cytotoxicity against human PC-3 cells measured after 3 days. The assay is classed as functional, cell-based. The settings on record: PC-3, 72 h.
A short description of assay [16]: Cytotoxicity against human MCAS cells measured after 3 days. The settings on record: 72 h. It counts as functional, cell-based.
Assay [17] addresses T1, Bromodomain-containing protein 9 (Homo sapiens). The experiment in a line: Inhibition of BRD9 in human PC-9 cells assessed as reduction in ALDH1A1 gene expression at 0.5 uM preincubated with erlotinib for 8 days followed by compound addition and measured after 24 hrs by RNA sequencing analysis. It counts as cell-based.
In the next assay the test system is KMS-12-PE. The experiment in a line: Cytotoxicity against human KMS-12-PE cells measured after 3 days. It counts as functional, cell-based. The settings on record: 72 h.
The next assay concerns NCI-H2170. The experiment in a line: Cytotoxicity against human NCI-H2170 cells measured after 3 days. The assay is classed as functional, cell-based. The settings on record: NCI-H2170, 72 h.
Assay [18] is described as follows: Cytotoxicity against human NCE-G 84 cells measured after 3 days. The settings on record: NCE-G 84, 72 h. It counts as functional, cell-based.
The test system of a further assay is Calu-1. The experiment in a line: Cytotoxicity against human Calu-1 cells after 8 days. The assay is classed as functional, cell-based. The settings on record: Calu-1, 192 h.
Assay [19] can be described thus: Cytotoxicity against human NCI-H2073 cells measured after 8 days. The assay is classed as functional, cell-based. The settings on record: NCI-H2073, 192 h.
For another assay, the system named is SNU-387. The experiment in a line: Cytotoxicity against human SNU-387 cells measured after 3 days. The settings on record: SNU-387, 72 h. The assay is classed as functional, cell-based.
In assay [20] the target is T1, Bromodomain-containing protein 9 (Homo sapiens). The experiment in a line: Inhibition of BRD9 in human PC-9 cells assessed as reduction in ALDH1A1 gene expression at 5 uM preincubated with erlotinib for 8 days followed by compound addition and measured after 24 hrs by RNA sequencing analysis. It counts as cell-based.
The next assay concerns BXPC-3. The experiment in a line: Antiproliferative activity against human BxPC-3 cells assessed as reduction in colony formation up to 20 uM supplemented with fresh medium containing compound every 3 days for 9 days by MTT staining based clonogenic assay. The settings on record: time 9.0 day. The assay is classed as functional, cell-based.
A further assay relates to HL-60. The experiment in a line: Cytotoxicity against human HL-60 cells measured after 8 days. The assay is classed as functional, cell-based. The settings on record: HL-60, 192 h.

By pIC50 is commonly meant the negative decadic logarithm of the IC50, by convention in mol/L. Low readings indicate a large IC50, high ones a small IC50. On to `C/C=C/Cn1cc(-c2cc(OC)c(C(=O)N3CCOCC3)cc2OC)c2cc(C)[nH]c2c1=O`, for which the pIC50 (in assay [1]; in [2]; in [3]; in assay [4]; in the assay with EFM-19; in the assay on SNU-423) was 5.30 throughout. The negative logarithm of the IC50 (pIC50) (with OVCAR-4; in assay [5]; in assay [6]; in assay [7]; with Daudi; in assay [8]) was 5.30 each time. The pIC50 was 5.70 in assay [9]; 5.30 in the assay with CAL-85-1; 5.30 with Raji; 5.30 with HLE; 5.70 in the assay with TERT-RPE1; 5.30 with 769-P. The pIC50 (in the assay with DOHH-2; in assay [10]; in assay [11]; in assay [12]; in assay [14]; with NCI-H1944) was 5.30 each time. For the same compound, the pIC50 in the assay with SK-MES-1 was 5.30; in the assay with KARPAS-422, 5.30; in the assay on RL it was 5.30; in the assay with NALM-6, 5.30; in the assay on MCF7, 5.70; with SNU-398, 5.30. The pIC50 (with SU-DHL-1; in assay [15]; with PC-3; in [16]; in the assay on KMS-12-PE; in the assay on NCI-H2170) was 5.30 throughout. Further, the negative-log IC50 (pIC50) in [18] was 5.30; with Calu-1 it was 5.70; in [19] it was 5.70; with SNU-387 it was 5.30. Besides, the outcome in the assay with PC-9 was inactive. Also, the result in assay [13] was Active. Moreover, the inhibition entry in assay [17] was “Active”.

As to `C/C=C/Cn1cc(-c2ccc(C(C)(C)O)cc2OC)c2cc[nH]c2c1=O`, the inhibition entry in [20] is “Active”. In addition, the result with BXPC-3 was inactive. The compound also gave a pIC50 in the assay on HL-60 of 4.87.
